One test concerns CEMO-1. Nature of the test: Cell proliferation assay, CEMO-1 (ALL). In kind it is cell-based, human. Particulars: Homo sapiens.
In a further test the test system is HUH7. Nature of the test: Cell proliferation assay, HUH7 (Hepatocarcinoma). The format is cell-based. The conditions noted are these: Homo sapiens, Huh-7, 48 hours. As for the experimental part: (§1) Cell proliferation was analyzed after 48 hours of in vitro treatment using the CellTiter 96 Aqueous One Solution Cell Proliferation Assay (Promega, Madison, Wis.). This is a colorimetric method for determining the number of viable cells in proliferation.
(§2) For the assay, suspension cells were cultured by triplicate at a density of 1×10^6 cells/ml in 96-well plates (100.000 cells/well, 100 μl/well), except for OCILY-3 and OCILY-10 cell lines which were cultured at a density of 0.5×10^6 cells/ml (50.000 cells/well, 100 μl/well) and for HepG2, Hep3B and PLC/PRF/5 cell ines which were cultured at a density of 3000 cells/well, 100 μl/well). Adherent cells were obtained from 80-90% confluent flasks and 100 μl of cells were seeded at a density of 5000 cells/well in 96-well plates by triplicate. Before addition of the compounds, adherent cells were allowed to attach to the bottom of the wells for 12 hours. […]
(§3) After 48 hours of treatment, plates with suspension cells were centrifuged at 800 g for 10 minutes and medium was removed. […] After 1-3 hours of incubation at 37° C., absorbance was measured at 490 nm in a 96-well plate reader. The background absorbance was measured in wells with only cell line medium and solution reagent. Data was calculated as a percentage of total absorbance of treated cell/absorbance of non treated cells. […]

For the next test, the system named is HBL-2. The experiment in a line: Cell proliferation assay, HBL-2 (MCL). In kind it is cell-based. Particulars: HBL2, 48 hours. As for the experimental part: as §1, §2, §3
A further test has as its system SU-DHL-7. The experiment in a line: Cell proliferation assay, SU-DHL-7 (GC-DLBCL). In kind it is cell-based. Particulars: 48 hours. As for the experimental part: as §1, §2, §3
A further test has as its system OCI-Ly10. The experiment in a line: Cell proliferation assay, OCI-Ly10 (ABC-DLBCL). The format is cell-based. Particulars: Homo sapiens, 48 hours of treatment, Table 3. Here is the method:
as §1
(§4) For the assay, suspension cells were cultured by triplicate at a density of 1×10^6 cells/ml in 96-well plates (100.000 cells/well, 100 μl/well), except for OCILY-3 and OCILY-10 cell lines which were cultured at a density of 0.5×10^6 cells/ml (50.000 cells/well, 100 μl/well) and for HepG2, Hep3B and PLC/PRF/5 cell ines which were cultured at a density of 3000 cells/well, 100 μl/well). Adherent cells were obtained from 80-90% confluent flasks and 100 μl of cells were seeded at a density of 5000 cells/well in 96-well plates by triplicate. Before addition of the compounds, adherent cells were allowed to attach to the bottom of the wells for 12 hours. In all cases, only the 60 inner wells were used to avoid any border effects.
(§5) After 48 hours of treatment, plates with suspension cells were centrifuged at 800 g for 10 minutes and medium was removed. The plates with adherent cells were flicked to remove medium. Then, cells were incubated with 100 ul/well of medium and 20 ul/well of CellTiter 96 Aqueous One Solution reagent. After 1-3 hours of incubation at 37° C., absorbance was measured at 490 nm in a 96-well plate reader. The background absorbance was measured in wells with only cell line medium and solution reagent. Data was calculated as a percentage of total absorbance of treated cell/absorbance of non treated cells.

For the next test, the system named is KMS28BM. Nature of the test: Cell proliferation assay, KMS28BM (MM). The format is cell-based. Particulars: KMS-28BM, 48 hours. Here is the method:
as §1, §2, §3

In the next test the test system is OCI-Ly7. The experiment in a line: Cell proliferation assay, OCI-Ly7 (GC-DLBCL). The format is cell-based. The conditions noted are these: Homo sapiens, 48 hours. As for the experimental part:
as §1, §2, §3

A further test has as its system CAKI-2. The experiment in a line: Cell proliferation assay, CAKI-2 (Renal). The conditions noted are these: Homo sapiens, 48 hours. In kind it is cell-based. Here is the method: as §1, §2, §3
In a further test the target is DNMT3B/3L (Homo sapiens, UniProt Q9UBC3). Nature of the test: DNMT3B enzyme activity assay (chemiluminescence BPS DNMT Universal Assay Kit). In kind it is biochemical. As for the experimental part: (§6) DNMT3A and DNMT3B activity assays were carried out with the chemiluminiscence BPS DNMT Universal Assay Kit (BPS#52035) using a strip 96-well plate pre-coated with DNMT substrate.
(§7) The enzyme activity assay protocol is as follows: • Rehydrate the microwells by adding 150 μL of TBST buffer (1× Tris-buffered saline (TBS), pH 8.0, containing 0.05% Tween-20) to every well. Incubate 15 minutes at room temperature. • Dilute each purified DNMT [DNMT3A/3L (BPS#51106) or DNMT3B/3L (BPS#51109)] in 1×DNMT assay buffer 2 (BPS#52201) at 5-10 ng/μL. Keep diluted enzyme on ice until use. • Prepare 50 μL of reaction mixture consisting of 20 μL of DNMT (5-10 ng/μL), 12.5 μL of 4×DNMT assay buffer 2 (BPS#52201), 2.5 μL of S-adenosylmethionine 400 μM, test compound at concentrations ranging from 3 nM to 10 μM and H2O up to 50 μL. • Add the entire reaction mixture to the substrate coated wells. […]
(§8) Incubate for 30 min at room temperature with slow shaking. • Wash plate three times with TBST buffer and incubate in Blocking buffer shaking on a rotating platform for 10 min. […] Immediately read luminescence using a BioTek Synergy™2 microplate reader.
(§9) The chemiluminescence intensity data were analyzed and compared. […] Calculated IC50 values were determined using non-linear regression analysis of Sigmoidal dose-response curve generated with a four-parameters inhibition curve.

Another test concerns A375. Nature of the test: Cell proliferation assay, A375 (Melanoma). The conditions noted are these: Homo sapiens, A-375, 48 hours. The format is cell-based. As for the experimental part:
as §1, §2, §3

The subject of a further test is 1205-LU. The experiment in a line: Cell proliferation assay, 1205-LU (Melanoma). In kind it is cell-based. Particulars: Homo sapiens, 48 hours. As for the experimental part:
as §1, §2, §3

The test system of a further test is OCI-AML-2. The experiment in a line: Cell proliferation assay, OCI-AML-2 (AML). Particulars: Homo sapiens. In kind it is cell-based. Here is the method:
as §1, §4, §5
Compounds 3-04 and 3-07 were tested against different solid tumour and oncohematological cell lines using the cell proliferation protocol described above.

In the next test the test system is OCI-Ly1. The experiment in a line: Cell proliferation assay, OCI-Ly1 (GC-DLBCL). In kind it is cell-based. Particulars: Homo sapiens, 48 hours. Here is the method: as §1, §2, §3
Another test addresses DNMT3A/3L (Homo sapiens, UniProt Q9Y6K1). Nature of the test: DNMT3A enzyme activity assay (chemiluminescence BPS DNMT Universal Assay Kit). The format is biochemical. Here is the method:
as §6, §7, §8, §9

By GI50 is commonly meant the concentration that inhibits growth by half. Read a high GI50 as less potent growth inhibition. For orientation: IC50 means the concentration at which inhibition is half-maximal.

Regarding `COc1cc2c(NC3CCN(C)CC3)cc(-c3ccc(C)o3)nc2cc1OCCCN1CCCC1.O=C(O)C(F)(F)F` [Compound 3-04, 6-methoxy-2-(5-methyl-2-furyl)-N-(1-methyl-4-piperidyl)-7-(3-pyrrolidin-1-ylpropoxy)quinolin-4-amine; 2,2,2-trifluoroacetic acid], the GI50 was 100 to 1000 nM with CEMO-1 (48 hours of treatment, Table 3); 100 to 1000 nM with CEMO-1 (ALL, Table 5 comparison); at most 100 nM with HUH7; 100 to 1000 nM in the test on HBL-2; 100 to 1000 nM in the test with SU-DHL-7; 100 to 1000 nM with OCI-Ly10. Besides, the GI50 fell in the range of 1000 to 10000 nM in the test on KMS28BM; 100 to 1000 nM with OCI-Ly7; 1000 to 10000 nM in the test with CAKI-2; 100 to 1000 nM in the test on A375; 100 to 1000 nM with 1205-LU; 100 to 1000 nM in the test with OCI-AML-2 (OCI-AML2, 48 hours, Table 4). Besides, the GI50 was 100 to 1000 nM in the test with OCI-AML-2 (OCI-AML2, Table 5 comparison) and 100 to 1000 nM with OCI-Ly1. The half-inhibitory concentration (IC50) is 100 to 500 nM at DNMT3B/3L and under 100 nM on DNMT3A/3L.

As to `COc1cc2c(NCC3CCN(C)CC3)cc(-c3ccc(C)o3)nc2cc1OCCCN1CCCC1` [Compound 3-07], the GI50 in the test with HUH7 was 100 to 1000 nM; with CAKI-2, 100 to 1000 nM; in the test with A375 it was at most 100 nM; with 1205-LU, at most 100 nM; with OCI-AML-2 (OCI-AML2, 48 hours, Table 4), 100 to 1000 nM; in the test with OCI-AML-2 (OCI-AML2, Table 5 comparison) it was 100 to 1000 nM. The figures for the IC50 at DNMT3B/3L and on DNMT3A/3L were 500 to 1000 nM and under 100 nM, respectively.

Source of the values: patent publication US9840500B2, “Compounds as dual inhibitors of histone methyltransferases and DNA methyltransferases” (FUNDACIÓN PARA LA INVESTIGACIÓN MÉDICA APLICADA, priority 2014, dated 2017).
